According to patent publication US12195427B2, “MASP-2 inhibitors and methods of use” (priority 2018, dated 2025):
pIC50: −log10 of the molar value.

Columns and labels:
[1] = system: Lectin Pathway; assay: Lectin Pathway Activation Assay in Human Serum (mannan-coated ELISA, C3c detection); assay type: biochemical; conditions: 1% human serum
Procedure: Microtiter ELISA plate was coated with mannan from Saccharomyces cerevisiae (Sigma-Aldrich, M7504) for overnight at 4° C. in coating buffer [15 mM Na2CO3, 35 mM NaHCO3].

[2] = target: MASP-2 CCP2-SP (Homo sapiens (Human), UniProt O00187); assay: MASP-2 co-crystallization, X-ray crystallography and structure analysis (H-bonds, van der Waals contacts); set-up: van der Waals contact distance, MASP-2 HIS 483 atom CD2 / van der Waals contact distance, MASP-2 HIS 483 atom NE2 / van der Waals contact distance, SER 654 C to compound atom / van der Waals contact distance, SER 654 O to compound atom / van der Waals contact distance, TRP 655 C to compound atom / van der Waals contact distance, MASP-2 GLY 528 atom CA / van der Waals contact distance TRP 655 atom CZ3 / van der Waals contact distance TRP 655 atom N / van der Waals contact distance TRP 655 atom CE3 / van der Waals contact distance GLY 656 atom C / van der Waals contact distance GLY 656 atom CA / van der Waals contact distance GLY 656 atom O / van der Waals contact distance, MASP-2 TYR 607 atom CD1 / van der Waals contact distance, MASP-2 PRO 606 atom O / d(C3,CA1) / d(CA1,N1)2 / d(H4,O1) / d(H4,O2) / d(O1,O2) / d(CA1,O2) / d(CA6,O1) / d(CA6,O2) / d(CA1,C5) / d(O2,H3) / d(N2,C2) / d(CA5,N2) / d(N2,C4) / d(N2,C6) / d(N2,CA3) / d(N2,O3) / d(O4,H2): unit not given beside the values;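 for Ligand-pharmacophore element distance, pharmacophore element C2: distance from averaged pharmacophore element to bound ligand; missing value means element absent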;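 for Ligand-pharmacophore element distance, pharmacophore element C3: distance from averaged pharmacophore element to bound ligand; missing value means element absent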;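 for Ligand-pharmacophore element distance, pharmacophore element C4: distance from averaged pharmacophore element to bound ligand; missing value means element absent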;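 for Ligand-pharmacophore element distance, pharmacophore element C5: distance from averaged pharmacophore element to bound ligand; missing value means element absent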
MASP-2 CCP2-SP, sequence (O00187 445-686): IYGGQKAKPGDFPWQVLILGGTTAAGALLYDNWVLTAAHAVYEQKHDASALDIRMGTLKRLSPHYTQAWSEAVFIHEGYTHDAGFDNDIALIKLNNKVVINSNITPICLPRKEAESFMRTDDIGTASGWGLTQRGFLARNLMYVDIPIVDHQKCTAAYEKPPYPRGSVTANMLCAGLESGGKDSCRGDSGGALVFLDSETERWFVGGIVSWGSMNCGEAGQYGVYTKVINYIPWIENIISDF
MASP-2 CCP2-SP, sequence (O00187 364-432 partner): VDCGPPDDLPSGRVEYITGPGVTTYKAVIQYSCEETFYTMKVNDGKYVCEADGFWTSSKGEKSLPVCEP
Outline: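 Soaked crystals of recombinant CCP2-SP (E. coli) yield the structures, phased by molecular replacement on 1Q3X pieces. Hydrophobic or nonbonded contacts can also cover atom pairs that are potential hydrogen bonds.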

[3] = Table A5-1 pharmacophore: distance between elements, S2/S1 region
[4] = Table A5-2 pharmacophore distance, S3/S4 region
[5] = Table A7-1, between pharmacophore elements of the bound compound
[6] = Table A7-2, between pharmacophore elements of the bound compound

With Cc1nc(N)ccc1CNC(=O)[C@H](C)NC(=O)[C@H]1C[C@H](Cc2ccc3ccccc3c2)CN1 [compound 1338, (2R,4S)—N—((S)-1-(((6-Amino-2-methylpyridin-3-yl)methyl)amino)-1-oxopropan-2-yl)-4-(naphthalen-2-ylmethyl)pyrrolidine-2-carboxamide] the pIC50 [1] was 6.30 to 7.30, the “H-bond distance to MASP-2 ASP 627 atom OD2” value ([2]; Table A1 (H-Bonds), ASP 627 OD2) was 3.2 and the “H-bond distance to MASP-2 GLY 656 atom N” value ([2]; Table A1 (H-Bonds), GLY 656 N) was 3.23. The “H-bond distance to MASP-2 GLY 656 atom O” value ([2]; Table A1 (H-Bonds), GLY 656 O) was 2.78, the “H-bond distance to MASP-2 SER 628 atom O” value ([2]; Table A1 (H-Bonds), SER 628 O) was 3.04 and the “H-bond distance to MASP-2 SER 654 atom O” value ([2]; Table A1 (H-Bonds), SER 654 O) was 2.99. For the same compound, the “H-bond distance to MASP-2 SER 657 atom O” value ([2]; Table A1 (H-Bonds), SER 657 O) was 2.93, the “van der Waals contact distance, MASP-2 HIS 483 atom CD2” value ([2]; Table A2-1) was 3.58 and the “van der Waals contact distance, MASP-2 HIS 483 atom NE2” value ([2]; Table A2-1) was 3.82. The “van der Waals contact distance, MASP-2 ALA 527 atom C” value ([2]; Table A2-2) was 3.67, the “van der Waals contact distance, MASP-2 PHE 529 atom CE2” value ([2]; Table A2-3) was 3.86 and the “van der Waals contact distance, MASP-2 amino acid atom to compound atom” value ([2]; Table A2-9, ARG 630, AA atoms CG, CZ) was 3.75. The “van der Waals contact distance, VAL 653 CG1 to compound atom” value ([2]; Table A2-11) was 3.33, the “van der Waals contact distance, TRP 655 CA to compound atom” value ([2]; Table A2-12) was 3.4 and the “van der Waals contact distance TRP 655 atom CE3” value ([2]; Table A2-13, MASP-2 TRP 655 CE3, compound atom in line below) was 3.83. For the same compound, the “van der Waals contact distance TRP 655 atom CZ3” value ([2]; Table A2-13, MASP-2 TRP 655 CZ3) was 3.74, the “van der Waals contact distance TRP 655 atom N” value ([2]; Table A2-13, MASP-2 TRP 655 N) was 3.9 and the “Ligand-pharmacophore element distance, pharmacophore element C2” value ([2]; Table A4-1, element C2) was 0. The “Ligand-pharmacophore element distance, pharmacophore element C3” value ([2]; Table A4-1, element C3) was 0.12, the “Ligand-pharmacophore element distance, pharmacophore element C4” value ([2]; Table A4-1, element C4) was 0 and the “Ligand-pharmacophore element distance, pharmacophore element C5” value ([2]; Table A4-1, element C5) was 0. The “Ligand-pharmacophore element distance, pharmacophore element C6” value ([2]; Table A4-1, element C6) was 0, the “Ligand-pharmacophore element distance, pharmacophore element C7” value ([2]; Table A4-1, element C7) was 0 and the “Ligand-pharmacophore element distance, pharmacophore element CA1” value ([2]; Table A4-1, element CA1) was 0.55. For the same compound, the “Ligand-pharmacophore element distance, pharmacophore element CA2” value ([2]; Table A4-1, element CA2) was 0.59, the “Ligand-pharmacophore element distance, pharmacophore element CA3” value ([2]; Table A4-1, element CA3) was 0 and the “Ligand-pharmacophore element distance, pharmacophore element CA4” value ([2]; Table A4-1, element CA4) was 1.21. The “Ligand-pharmacophore element distance, pharmacophore element CA5” value ([2]; Table A4-1, element CA5) was 0, the “Ligand-pharmacophore element distance, pharmacophore element CA6” value ([2]; Table A4-1, element CA6) was 0 and the “d(C3,CA1)” value [2, 3] was 2.88. For the same compound, the “d(CA1,N1)2” value [2, 3] was 1.37, the “d(CA1,O1)” value [2, 3] was 4.35 and the “d(CA1,O2)” value [2, 3] was 3.80. For the same compound, the “d(H4,O1)” value [2, 3] was 4.33, the “d(H4,O2)” value [2, 3] was 3.75 and the “d(O1,O2)” value [2, 3] was 3.35. The “d(N2,CA2)” value [2, 4] was 6.05, the “d(O2,H3)” value [2, 4] was 4.29 and the “d(O2,N2)” value [2, 4] was 2.74. The “a(C3, CA1, O1)” value ([2]; Table A6-1 pharmacophore angle) was 148.99, the “a(CA1, O1, O2)” value ([2]; Table A6-1 pharmacophore angle) was 105.30 and the “a(O1, O2, H4)” value ([2]; Table A6-1 pharmacophore angle) was 131.78. The “a(N1, CA1, O1) b)” value ([2]; Table A6-1 pharmacophore angle, Methyl-amino-pyridine compounds) was 173.72, the “a(O1, O2, H3)” value ([2]; Table A6-2 pharmacophore angle) was 148.03 and the “a(O1, O2, N2)” value ([2]; Table A6-2 pharmacophore angle) was 141.48. For the same compound, the “a(O2, N2, CA2)” value ([2]; Table A6-2 pharmacophore angle) was 157.11, the “Pharmacophore torsion angle a(C3, CA1, O1, H4)” value [2, 5] was 23.02 and the “Pharmacophore torsion angle a(H4, O1, O2, H3)” value [2, 5] was 52.11. For the same compound, the “Pharmacophore torsion angle a(H4, O1, O2, N2)” value [2, 5] was 140.39, the “Pharmacophore torsion angle a(N1, CA1, O1, H4)” value [2, 5] was −3.32 and the “Pharmacophore torsion angle a(O1, H4, O2, CA1)” value [2, 5] was −85.13. The “Pharmacophore torsion angle a(O1, O2, N2, CA2)” value [2, 6] was 124.64 and the “Pharmacophore torsion angle a(O1, O2, N2, CA4)” value [2, 6] was 116.54.
